Laboratory results as given in the supplement of paper PMC10307832.

Key:
Test in all cases: relative viability (nuclei count vs DMSO), 5 days (fraction); higher = more cells survive
Elesclomol = compound: CN(NC(=O)CC(=O)NN(C)C(=S)c1ccccc1)C(=S)c1ccccc1 [Elesclomol]
Outline: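 Acceptance criteria were a control CV below 25% and at least one doubling per plate. Lung cancer cell lines in 1536-well plates got five library-drug doses (not always all listed) √10 apart by pinning and were left 5 days with no medium change. Viability divides treated-well nuclei by vehicle-well nuclei and is the median across plates. Nuclei were counted by MetaXpress from 4× Hoechst images.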

Elesclomol + Bortezomib = compound: CN(NC(=O)CC(=O)NN(C)C(=S)c1ccccc1)C(=S)c1ccccc1 [Elesclomol] + CC(C)C[C@H](NC(=O)[C@H](Cc1ccccc1)NC(=O)c1cnccn1)B(O)O [Bortezomib] (partner 0.002 µM)
Outline: (§1)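 Lung cancer cell lines in 1536-well plates got either a single drug or a fixed anchor-drug dose together with five library-drug doses (not always all listed) in √10 steps, by pin tool, on the day after seeding. Nuclei were counted after 5 days, and relative viability is the treated-to-vehicle ratio of nuclei counts. Values are medians of duplicate plates.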

Elesclomol + Navitoclax = compound: CN(NC(=O)CC(=O)NN(C)C(=S)c1ccccc1)C(=S)c1ccccc1 [Elesclomol] + CC1(C)CCC(c2ccc(Cl)cc2)=C(CN2CCN(c3ccc(C(=O)NS(=O)(=O)c4ccc(N[C@H](CCN5CCOCC5)CSc5ccccc5)c(S(=O)(=O)C(F)(F)F)c4)cc3)CC2)C1 [Navitoclax] (partner 0.5 µM)
Outline: as §1

Elesclomol + Foretinib = compound: CN(NC(=O)CC(=O)NN(C)C(=S)c1ccccc1)C(=S)c1ccccc1 [Elesclomol] + COc1cc2c(Oc3ccc(NC(=O)C4(C(=O)Nc5ccc(F)cc5)CC4)cc3F)ccnc2cc1OCCCN1CCOCC1 [Foretinib] (partner 0.25 µM)
Outline: as §1

Elesclomol + Lapatinib = compound: CN(NC(=O)CC(=O)NN(C)C(=S)c1ccccc1)C(=S)c1ccccc1 [Elesclomol] + CS(=O)(=O)CCNCc1ccc(-c2ccc3ncnc(Nc4ccc(OCc5cccc(F)c5)c(Cl)c4)c3c2)o1 [Lapatinib] (partner 2 µM)
Outline: as §1

Elesclomol + Pictilisib = compound: CN(NC(=O)CC(=O)NN(C)C(=S)c1ccccc1)C(=S)c1ccccc1 [Elesclomol] + CS(=O)(=O)N1CCN(Cc2cc3nc(-c4cccc5[nH]ncc45)nc(N4CCOCC4)c3s2)CC1 [Pictilisib] (partner 1 µM)
Outline: as §1

Elesclomol + Crizotinib = compound: CN(NC(=O)CC(=O)NN(C)C(=S)c1ccccc1)C(=S)c1ccccc1 [Elesclomol] + C[C@@H](Oc1cc(-c2cnn(C3CCNCC3)c2)cnc1N)c1c(Cl)ccc(F)c1Cl [Crizotinib] (partner 1 µM)
Outline: as §1

Elesclomol + Linsitinib = compound: CN(NC(=O)CC(=O)NN(C)C(=S)c1ccccc1)C(=S)c1ccccc1 [Elesclomol] + C[C@]1(O)C[C@@H](c2nc(-c3ccc4ccc(-c5ccccc5)nc4c3)c3c(N)nccn32)C1 [Linsitinib] (partner 1 µM)
Outline: as §1

Elesclomol + Alpelisib = compound: CN(NC(=O)CC(=O)NN(C)C(=S)c1ccccc1)C(=S)c1ccccc1 [Elesclomol] + Cc1nc(NC(=O)N2CCC[C@H]2C(N)=O)sc1-c1ccnc(C(C)(C)C(F)(F)F)c1 [Alpelisib] (partner 2 µM)
Outline: as §1

Elesclomol + Olaparib = compound: CN(NC(=O)CC(=O)NN(C)C(=S)c1ccccc1)C(=S)c1ccccc1 [Elesclomol] + O=C(c1cc(Cc2n[nH]c(=O)c3ccccc23)ccc1F)N1CCN(C(=O)C2CC2)CC1 [Olaparib] (partner 8 µM)
Outline: as §1

Row | Cell Line | relative viability (Elesclomol; 0.003162 µM) | relative viability (Elesclomol; 0.01 µM) | relative viability (Elesclomol; 0.03162 µM) | relative viability (Elesclomol; 0.1 µM) | relative viability (Elesclomol + Bortezomib; first compound 0.003162 µM) | relative viability (Elesclomol + Bortezomib; first compound 0.01 µM) | relative viability (Elesclomol + Bortezomib; first compound 0.03162 µM) | relative viability (Elesclomol + Bortezomib; first compound 0.1 µM) | relative viability (Elesclomol + Navitoclax; first compound 0.003162 µM) | relative viability (Elesclomol + Navitoclax; first compound 0.01 µM) | relative viability (Elesclomol + Navitoclax; first compound 0.03162 µM) | relative viability (Elesclomol + Navitoclax; first compound 0.1 µM) | relative viability (Elesclomol + Foretinib; first compound 0.003162 µM) | relative viability (Elesclomol + Foretinib; first compound 0.01 µM) | relative viability (Elesclomol + Foretinib; first compound 0.03162 µM) | relative viability (Elesclomol + Foretinib; first compound 0.1 µM) | relative viability (Elesclomol + Lapatinib; first compound 0.003162 µM) | relative viability (Elesclomol + Lapatinib; first compound 0.01 µM) | relative viability (Elesclomol + Lapatinib; first compound 0.03162 µM) | relative viability (Elesclomol + Lapatinib; first compound 0.1 µM) | relative viability (Elesclomol + Pictilisib; first compound 0.003162 µM) | relative viability (Elesclomol + Pictilisib; first compound 0.01 µM) | relative viability (Elesclomol + Pictilisib; first compound 0.03162 µM) | relative viability (Elesclomol + Pictilisib; first compound 0.1 µM) | relative viability (Elesclomol + Crizotinib; first compound 0.003162 µM) | relative viability (Elesclomol + Crizotinib; first compound 0.01 µM) | relative viability (Elesclomol + Crizotinib; first compound 0.03162 µM) | relative viability (Elesclomol + Crizotinib; first compound 0.1 µM) | relative viability (Elesclomol + Linsitinib; first compound 0.003162 µM) | relative viability (Elesclomol + Linsitinib; first compound 0.01 µM) | relative viability (Elesclomol + Linsitinib; first compound 0.03162 µM) | relative viability (Elesclomol + Linsitinib; first compound 0.1 µM) | relative viability (Elesclomol + Alpelisib; first compound 0.003162 µM) | relative viability (Elesclomol + Alpelisib; first compound 0.01 µM) | relative viability (Elesclomol + Alpelisib; first compound 0.03162 µM) | relative viability (Elesclomol + Alpelisib; first compound 0.1 µM) | relative viability (Elesclomol + Olaparib; first compound 0.003162 µM) | relative viability (Elesclomol + Olaparib; first compound 0.01 µM) | relative viability (Elesclomol + Olaparib; first compound 0.03162 µM) | relative viability (Elesclomol + Olaparib; first compound 0.1 µM)
1 | Calu-6 | 0.768 | 0.317 | 0.304 | 0.138 | 0.787 | 0.322 | 0.16 | 0.155 | 0.476 | 0.166 | 0.122 | 0.0729 | 0.511 | 0.15 | 0.0883 | 0.0356 | 0.602 | 0.276 | 0.3 | 0.12 | 0.573 | 0.239 | 0.164 | 0.111 | 0.501 | 0.222 | 0.247 | 0.121 | 0.737 | 0.223 | 0.285 | 0.153 | 0.727 | 0.243 | 0.229 | 0.127 | 0.477 | 0.219 | 0.177 | 0.121
2 | EBC-1 | 0.983 | 0.74 | 0.506 | 0.349 | 0.497 | 0.436 | 0.208 | 0.156 | 0.374 | 0.228 | 0.146 | 0.132 | 0.11 | 0.1 | 0.0784 | 0.0763 | 0.239 | 0.183 | 0.177 | 0.157 | 0.335 | 0.17 | 0.156 | 0.148 | 0.18 | 0.199 | 0.151 | 0.135 | 0.892 | 0.614 | 0.484 | 0.227 | 0.733 | 0.354 | 0.268 | 0.206 | 0.655 | 0.544 | 0.487 | 0.291
3 | NCI-H1299 | 1.03 | 0.733 | 0.709 | 0.42 | 1.03 | 0.921 | 0.834 | 0.622 | 1.05 | 0.97 | 0.932 | 0.661 | 1.04 | 1.06 | 0.588 | 0.333 | 0.947 | 0.852 | 0.698 | 0.547 | 0.743 | 0.171 | 0.134 | 0.0529 | 0.613 | 0.822 | 0.698 | 0.507 | 0.994 | 0.677 | 0.549 | 0.145 | 1.08 | 1.05 | 0.918 | 0.636 | 0.991 | 0.574 | 0.401 | 0.146
